Here are results for one compound from publication PMC5513037, “Examining the influence of specificity ligands and ATP-competitive ligands on the overall effectiveness of bivalent kinase inhibitors” (Proteome Science, 2017).

Each structure is given as a SMILES string.

Common to all, as to assay: KAM-matrix competition in K562 lysate
What all share (format): binding

In one test the target is T1, BAZ1B (Homo sapiens, UniProt Q9UIG0).
T1 construct: endogenous in cells; host or cells: K562
T1 sequence (Q9UIG0 1-1483): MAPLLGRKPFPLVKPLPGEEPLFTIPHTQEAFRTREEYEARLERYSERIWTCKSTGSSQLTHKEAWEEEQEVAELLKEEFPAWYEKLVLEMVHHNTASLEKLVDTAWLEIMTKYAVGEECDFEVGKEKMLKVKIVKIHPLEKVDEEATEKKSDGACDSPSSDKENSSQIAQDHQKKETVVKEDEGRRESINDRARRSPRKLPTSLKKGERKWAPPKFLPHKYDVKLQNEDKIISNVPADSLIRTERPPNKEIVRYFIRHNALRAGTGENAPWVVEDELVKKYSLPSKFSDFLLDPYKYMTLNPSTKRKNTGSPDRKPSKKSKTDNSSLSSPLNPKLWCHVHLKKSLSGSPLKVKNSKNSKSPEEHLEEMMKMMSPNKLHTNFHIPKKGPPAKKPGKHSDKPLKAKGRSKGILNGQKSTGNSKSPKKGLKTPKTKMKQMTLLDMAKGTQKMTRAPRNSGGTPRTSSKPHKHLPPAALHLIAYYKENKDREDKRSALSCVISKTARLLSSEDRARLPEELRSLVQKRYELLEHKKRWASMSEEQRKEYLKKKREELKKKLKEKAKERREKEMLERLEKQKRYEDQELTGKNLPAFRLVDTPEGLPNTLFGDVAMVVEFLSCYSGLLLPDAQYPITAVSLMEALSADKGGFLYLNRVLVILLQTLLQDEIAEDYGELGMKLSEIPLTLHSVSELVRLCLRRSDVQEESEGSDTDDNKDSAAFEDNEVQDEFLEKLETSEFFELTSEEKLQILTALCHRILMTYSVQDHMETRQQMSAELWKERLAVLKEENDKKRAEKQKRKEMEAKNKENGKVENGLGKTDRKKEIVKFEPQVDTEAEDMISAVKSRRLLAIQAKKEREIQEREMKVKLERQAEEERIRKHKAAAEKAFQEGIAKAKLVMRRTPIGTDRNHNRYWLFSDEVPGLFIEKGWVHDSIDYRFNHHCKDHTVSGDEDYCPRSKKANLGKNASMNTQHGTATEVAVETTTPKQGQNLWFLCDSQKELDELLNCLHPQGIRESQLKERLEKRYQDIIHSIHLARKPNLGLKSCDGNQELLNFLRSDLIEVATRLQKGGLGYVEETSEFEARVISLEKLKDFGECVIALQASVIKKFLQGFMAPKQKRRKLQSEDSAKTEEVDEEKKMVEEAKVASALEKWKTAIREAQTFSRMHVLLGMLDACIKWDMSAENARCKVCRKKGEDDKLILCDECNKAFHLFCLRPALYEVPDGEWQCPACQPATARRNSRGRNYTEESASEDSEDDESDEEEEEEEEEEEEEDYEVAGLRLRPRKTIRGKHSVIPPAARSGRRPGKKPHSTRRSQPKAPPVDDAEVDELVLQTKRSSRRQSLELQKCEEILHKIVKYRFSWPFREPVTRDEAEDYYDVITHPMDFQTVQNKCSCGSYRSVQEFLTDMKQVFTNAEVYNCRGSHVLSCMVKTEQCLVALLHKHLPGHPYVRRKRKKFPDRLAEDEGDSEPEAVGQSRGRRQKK
The protocol:
(§1) Supplement 12953_2017_125_MOESM1_ESM.zip/MS_Supp Info.xlsx, sheet "KAM" | column: 10 uM KAM; 1 uM KAM; 0.1 uM KAM; 0.01 uM KAM; 0.001 uM KAM; RB50

Another test deals with T2, BMPR1A (Homo sapiens, UniProt P36894).
T2 construct: endogenous in cells; host or cells: K562
T2 sequence (P36894 24-532): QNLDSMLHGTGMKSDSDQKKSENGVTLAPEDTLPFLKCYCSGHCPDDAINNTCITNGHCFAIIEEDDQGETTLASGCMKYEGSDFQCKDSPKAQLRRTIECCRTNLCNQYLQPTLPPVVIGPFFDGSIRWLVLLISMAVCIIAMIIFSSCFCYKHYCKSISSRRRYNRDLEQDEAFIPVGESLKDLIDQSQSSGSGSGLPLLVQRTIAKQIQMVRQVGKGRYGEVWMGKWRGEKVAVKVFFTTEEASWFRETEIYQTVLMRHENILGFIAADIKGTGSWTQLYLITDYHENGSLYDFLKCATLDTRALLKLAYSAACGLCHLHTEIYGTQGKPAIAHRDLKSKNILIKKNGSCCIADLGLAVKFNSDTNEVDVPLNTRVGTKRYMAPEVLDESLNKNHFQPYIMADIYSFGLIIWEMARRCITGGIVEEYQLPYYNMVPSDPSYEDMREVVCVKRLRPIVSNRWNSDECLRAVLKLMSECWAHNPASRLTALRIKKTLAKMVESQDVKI
How it is done:
as §1

The target in another test is T3, MAPK8 (Homo sapiens, UniProt P45983).
T3 construct: endogenous in cells; host or cells: K562
T3 sequence (P45983 whole entry): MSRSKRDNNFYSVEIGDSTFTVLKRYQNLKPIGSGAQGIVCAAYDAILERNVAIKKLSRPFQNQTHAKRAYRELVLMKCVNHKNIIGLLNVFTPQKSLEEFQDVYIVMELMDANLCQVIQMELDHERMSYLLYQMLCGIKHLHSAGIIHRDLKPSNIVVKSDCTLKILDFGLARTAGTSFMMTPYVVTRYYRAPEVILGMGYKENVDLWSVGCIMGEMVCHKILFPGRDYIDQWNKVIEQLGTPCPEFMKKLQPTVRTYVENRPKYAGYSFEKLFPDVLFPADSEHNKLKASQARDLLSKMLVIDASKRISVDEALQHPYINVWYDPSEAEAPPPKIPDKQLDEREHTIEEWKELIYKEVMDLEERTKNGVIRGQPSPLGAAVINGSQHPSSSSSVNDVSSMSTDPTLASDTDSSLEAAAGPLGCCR
The protocol:
as §1

The target in a further test is T4, NPR2 (Homo sapiens, UniProt P20594).
T4 construct: endogenous in cells; host or cells: K562
T4 sequence (P20594 23-1047): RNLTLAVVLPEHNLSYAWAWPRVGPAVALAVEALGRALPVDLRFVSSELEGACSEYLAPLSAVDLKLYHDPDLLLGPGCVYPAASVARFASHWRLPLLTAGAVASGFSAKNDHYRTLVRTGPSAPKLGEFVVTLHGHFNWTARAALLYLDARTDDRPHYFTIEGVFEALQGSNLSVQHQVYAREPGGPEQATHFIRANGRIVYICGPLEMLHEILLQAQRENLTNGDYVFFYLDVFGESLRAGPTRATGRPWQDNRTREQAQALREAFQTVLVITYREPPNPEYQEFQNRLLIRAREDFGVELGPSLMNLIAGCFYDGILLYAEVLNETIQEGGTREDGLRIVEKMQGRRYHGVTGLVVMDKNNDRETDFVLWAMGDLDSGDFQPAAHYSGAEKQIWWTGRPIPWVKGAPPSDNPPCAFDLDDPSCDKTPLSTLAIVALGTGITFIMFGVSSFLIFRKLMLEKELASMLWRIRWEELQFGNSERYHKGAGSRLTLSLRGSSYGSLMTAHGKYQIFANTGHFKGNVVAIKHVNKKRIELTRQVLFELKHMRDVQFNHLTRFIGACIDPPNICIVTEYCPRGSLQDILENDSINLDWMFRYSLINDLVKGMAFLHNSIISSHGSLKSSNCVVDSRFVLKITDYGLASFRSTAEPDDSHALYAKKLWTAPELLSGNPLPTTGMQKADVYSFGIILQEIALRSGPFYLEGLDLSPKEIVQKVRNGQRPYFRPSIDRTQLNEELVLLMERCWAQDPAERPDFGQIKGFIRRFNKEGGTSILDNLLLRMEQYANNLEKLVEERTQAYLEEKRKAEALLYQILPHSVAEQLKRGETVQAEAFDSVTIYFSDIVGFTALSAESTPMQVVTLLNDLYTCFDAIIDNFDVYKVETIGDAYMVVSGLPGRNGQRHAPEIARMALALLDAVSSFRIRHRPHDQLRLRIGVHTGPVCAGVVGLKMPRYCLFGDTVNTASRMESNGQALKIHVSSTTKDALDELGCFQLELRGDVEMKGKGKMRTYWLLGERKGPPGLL
The protocol: as §1

[1] abbreviates: KAM 0.001-10 uM, read-out: RB50 (the source's name).
[2] abbreviates: read-out: RB50 (the source's name).
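Wherever 0.001 uM KAM is given: median log10 fold change of treatment over DMSO control.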
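Wherever 0.01 uM KAM is given: median log10 fold change of treatment over DMSO control.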
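Wherever 0.1 uM KAM is given: median log10 fold change of treatment over DMSO control.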
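Wherever 1 uM KAM is given: median log10 fold change of treatment over DMSO control.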
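Wherever 10 uM KAM is given: median log10 fold change of treatment over DMSO control.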

As to `N#CCc1ccc(Nc2nc(NCCCN)cc(Nc3cc(C4CC4)[nH]n3)n2)cc1` [KAM], the IC50 was more than 10 µM on BAZ1B (setting [1]), 2.7 µM on BMPR1A (setting [2]), 2.35 µM on MAPK8 (setting [2]) and more than 10 µM at NPR2 (setting [1]). Moreover, the “0.001 uM KAM” value is reported as -0.04632 on BAZ1B (relative to 0 uM KAM = 0) and -0.04196 at NPR2 (relative to 0 uM KAM = 0). Besides, the “0.01 uM KAM” value on BAZ1B (relative to 0 uM KAM = 0) is reported as -0.04267; on NPR2 (relative to 0 uM KAM = 0) it was -0.03427. Besides, the results for the “0.1 uM KAM” value at BAZ1B (relative to 0 uM KAM = 0) and on NPR2 (relative to 0 uM KAM = 0) were -0.03143 and -0.06644, respectively. The “1 uM KAM” value was -0.000154 at BAZ1B (relative to 0 uM KAM = 0) and -0.002813 on NPR2 (relative to 0 uM KAM = 0). Besides, the entries for the “10 uM KAM” value on BAZ1B (relative to 0 uM KAM = 0) and at NPR2 (relative to 0 uM KAM = 0) were -0.05532 and -0.07947, respectively. The “median Log10 fold change” value on BMPR1A (0.001 uM KAM) is given as -0.03052; on BMPR1A (0.01 uM KAM) it was -0.01848; on BMPR1A (0.1 uM KAM), -0.1062; at BMPR1A (1 uM KAM) it was -0.2213; on BMPR1A (10 uM KAM), -0.3941; on MAPK8 (0.001 uM KAM), -0.03388. Moreover, the “median Log10 fold change” value at MAPK8 (0.01 uM KAM) was -0.03516; at MAPK8 (0.1 uM KAM), -0.1302; at MAPK8 (1 uM KAM), -0.2377; on MAPK8 (10 uM KAM), -0.3812.
